Experimental data as given in ChEMBL document CHEMBL3991601, “The target landscape of clinical kinase drugs” (Science, 2017).
Active and inactive are the calls of the source. Rule as the data show it, for most assays here: actives have a measured Kd and inactives only a lower limit.

What was measured:
[1] = target: Casein kinase I isoform delta (Homo sapiens, UniProt P48730)
[2] = target: Dual specificity tyrosine-phosphorylation-regulated kinase 1A (Homo sapiens, UniProt Q13627)
[3] = target: Interleukin-1 receptor-associated kinase 1 (Homo sapiens, UniProt P51617)
[4] = target: T1, RNA cytidine acetyltransferase (Homo sapiens, UniProt Q9H0A0)
T1 sequence (Q9H0A0 whole entry): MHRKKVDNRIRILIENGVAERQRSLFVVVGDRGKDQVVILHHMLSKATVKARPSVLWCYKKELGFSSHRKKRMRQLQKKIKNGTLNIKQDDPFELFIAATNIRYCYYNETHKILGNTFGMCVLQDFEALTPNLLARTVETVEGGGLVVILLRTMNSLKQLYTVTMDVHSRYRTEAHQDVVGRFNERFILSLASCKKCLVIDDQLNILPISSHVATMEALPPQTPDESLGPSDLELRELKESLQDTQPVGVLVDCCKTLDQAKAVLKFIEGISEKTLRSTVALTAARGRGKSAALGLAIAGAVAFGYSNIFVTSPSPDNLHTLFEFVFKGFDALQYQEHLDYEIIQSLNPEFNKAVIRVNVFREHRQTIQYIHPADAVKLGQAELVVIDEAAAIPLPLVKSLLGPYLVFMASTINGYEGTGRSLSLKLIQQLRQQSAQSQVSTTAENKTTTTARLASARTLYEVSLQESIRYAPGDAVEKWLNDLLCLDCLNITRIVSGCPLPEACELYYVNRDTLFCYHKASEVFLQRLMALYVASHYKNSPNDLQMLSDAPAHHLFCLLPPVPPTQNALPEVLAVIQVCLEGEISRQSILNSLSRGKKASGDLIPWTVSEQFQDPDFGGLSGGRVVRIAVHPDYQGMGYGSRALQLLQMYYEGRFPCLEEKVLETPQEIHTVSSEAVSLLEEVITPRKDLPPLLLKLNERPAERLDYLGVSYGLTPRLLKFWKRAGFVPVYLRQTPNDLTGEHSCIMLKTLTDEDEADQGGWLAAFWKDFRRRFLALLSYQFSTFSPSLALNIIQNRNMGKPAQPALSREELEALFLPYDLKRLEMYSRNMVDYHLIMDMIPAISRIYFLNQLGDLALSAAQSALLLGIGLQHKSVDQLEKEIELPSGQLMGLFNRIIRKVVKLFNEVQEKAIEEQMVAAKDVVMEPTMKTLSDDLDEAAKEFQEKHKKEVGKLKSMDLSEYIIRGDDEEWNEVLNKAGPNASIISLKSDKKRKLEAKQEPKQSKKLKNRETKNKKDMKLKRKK

[5] = target: Serine/threonine-protein kinase N1 (Homo sapiens, UniProt Q16512)
[6] = target: T2, Glycogen phosphorylase, brain form (Homo sapiens, UniProt P11216)
T2 sequence (P11216 whole entry): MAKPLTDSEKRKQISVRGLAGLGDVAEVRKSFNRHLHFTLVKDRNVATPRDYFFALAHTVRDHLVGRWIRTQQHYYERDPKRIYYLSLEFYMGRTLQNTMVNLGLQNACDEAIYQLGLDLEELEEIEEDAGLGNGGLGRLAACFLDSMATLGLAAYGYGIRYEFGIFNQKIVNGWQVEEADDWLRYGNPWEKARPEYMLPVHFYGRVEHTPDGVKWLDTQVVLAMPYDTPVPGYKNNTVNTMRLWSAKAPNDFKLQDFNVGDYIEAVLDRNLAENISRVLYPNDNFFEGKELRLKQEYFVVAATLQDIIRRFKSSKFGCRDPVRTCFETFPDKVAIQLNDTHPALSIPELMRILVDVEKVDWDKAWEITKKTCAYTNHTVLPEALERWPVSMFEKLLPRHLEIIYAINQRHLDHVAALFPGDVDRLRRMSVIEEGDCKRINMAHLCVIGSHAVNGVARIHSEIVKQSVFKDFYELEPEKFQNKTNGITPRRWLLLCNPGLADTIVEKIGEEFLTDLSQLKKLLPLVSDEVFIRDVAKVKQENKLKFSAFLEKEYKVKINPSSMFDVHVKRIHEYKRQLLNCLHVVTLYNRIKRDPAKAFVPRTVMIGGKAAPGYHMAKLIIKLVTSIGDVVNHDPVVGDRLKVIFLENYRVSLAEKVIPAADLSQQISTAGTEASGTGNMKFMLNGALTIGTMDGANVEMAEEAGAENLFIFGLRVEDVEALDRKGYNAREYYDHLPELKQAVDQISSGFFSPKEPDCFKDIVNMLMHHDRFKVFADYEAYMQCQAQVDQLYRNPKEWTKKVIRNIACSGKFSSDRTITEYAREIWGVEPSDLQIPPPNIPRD

[7] = target: Rho-associated protein kinase 2 (Homo sapiens, UniProt O75116)
[8] = target: Ribosomal protein S6 kinase alpha-1 (Homo sapiens, UniProt Q15418)
[9] = target: T3, General transcription and DNA repair factor IIH helicase subunit XPD (Homo sapiens, UniProt P18074); details: read-out: Kd apparent; k-562, colo 205, sk-n-be(2) and mv-4-11
T3 sequence (P18074 whole entry): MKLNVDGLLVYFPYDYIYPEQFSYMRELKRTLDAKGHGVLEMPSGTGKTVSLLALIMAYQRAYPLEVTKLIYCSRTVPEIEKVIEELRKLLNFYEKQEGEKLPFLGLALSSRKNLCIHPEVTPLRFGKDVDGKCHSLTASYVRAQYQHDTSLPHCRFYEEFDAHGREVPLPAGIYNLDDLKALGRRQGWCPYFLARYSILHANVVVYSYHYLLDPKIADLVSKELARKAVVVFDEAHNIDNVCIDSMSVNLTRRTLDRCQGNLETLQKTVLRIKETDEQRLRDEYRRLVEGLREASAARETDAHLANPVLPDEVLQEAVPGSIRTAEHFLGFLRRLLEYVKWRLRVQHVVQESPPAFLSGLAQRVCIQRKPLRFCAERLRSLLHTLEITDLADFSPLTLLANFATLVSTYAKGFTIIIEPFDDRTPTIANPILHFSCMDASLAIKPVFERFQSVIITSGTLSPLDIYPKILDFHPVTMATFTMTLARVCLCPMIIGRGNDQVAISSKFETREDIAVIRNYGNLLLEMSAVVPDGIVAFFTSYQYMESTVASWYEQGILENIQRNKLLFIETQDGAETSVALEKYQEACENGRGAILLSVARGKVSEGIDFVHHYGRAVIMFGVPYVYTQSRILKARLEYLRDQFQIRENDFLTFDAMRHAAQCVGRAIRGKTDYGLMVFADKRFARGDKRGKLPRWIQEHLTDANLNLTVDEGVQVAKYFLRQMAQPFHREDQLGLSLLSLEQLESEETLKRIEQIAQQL
Also: in the data inactive means no Kd found up to 30 µM.

Chain of Serine/threonine-protein kinase N1 (Q16512 whole entry): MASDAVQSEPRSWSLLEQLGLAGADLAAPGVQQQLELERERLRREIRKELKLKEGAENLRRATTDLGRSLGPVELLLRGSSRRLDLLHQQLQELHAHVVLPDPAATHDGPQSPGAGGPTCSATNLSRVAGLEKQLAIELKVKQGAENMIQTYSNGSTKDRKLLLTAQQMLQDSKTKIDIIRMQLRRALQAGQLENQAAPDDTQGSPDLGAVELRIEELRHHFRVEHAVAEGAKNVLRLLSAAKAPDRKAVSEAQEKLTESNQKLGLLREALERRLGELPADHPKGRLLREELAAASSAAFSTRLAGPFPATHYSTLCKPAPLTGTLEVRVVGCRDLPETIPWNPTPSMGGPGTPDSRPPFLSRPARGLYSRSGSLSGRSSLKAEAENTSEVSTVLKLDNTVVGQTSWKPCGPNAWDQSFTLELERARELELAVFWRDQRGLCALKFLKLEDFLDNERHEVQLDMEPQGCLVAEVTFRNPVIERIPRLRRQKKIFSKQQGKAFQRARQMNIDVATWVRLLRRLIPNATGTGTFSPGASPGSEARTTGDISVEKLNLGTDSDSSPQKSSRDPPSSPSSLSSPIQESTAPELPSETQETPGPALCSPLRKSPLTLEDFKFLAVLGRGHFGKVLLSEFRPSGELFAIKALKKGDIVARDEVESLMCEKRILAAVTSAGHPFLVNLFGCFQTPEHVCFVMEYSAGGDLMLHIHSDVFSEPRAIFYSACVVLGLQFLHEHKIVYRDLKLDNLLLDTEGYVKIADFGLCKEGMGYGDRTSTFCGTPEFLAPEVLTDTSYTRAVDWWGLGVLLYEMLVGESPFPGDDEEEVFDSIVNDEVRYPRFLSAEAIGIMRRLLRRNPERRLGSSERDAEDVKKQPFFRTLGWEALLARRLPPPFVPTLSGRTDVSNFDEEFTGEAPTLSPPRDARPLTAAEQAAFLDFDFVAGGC
Chain of Casein kinase I isoform delta (P48730 whole entry, canonical isoform): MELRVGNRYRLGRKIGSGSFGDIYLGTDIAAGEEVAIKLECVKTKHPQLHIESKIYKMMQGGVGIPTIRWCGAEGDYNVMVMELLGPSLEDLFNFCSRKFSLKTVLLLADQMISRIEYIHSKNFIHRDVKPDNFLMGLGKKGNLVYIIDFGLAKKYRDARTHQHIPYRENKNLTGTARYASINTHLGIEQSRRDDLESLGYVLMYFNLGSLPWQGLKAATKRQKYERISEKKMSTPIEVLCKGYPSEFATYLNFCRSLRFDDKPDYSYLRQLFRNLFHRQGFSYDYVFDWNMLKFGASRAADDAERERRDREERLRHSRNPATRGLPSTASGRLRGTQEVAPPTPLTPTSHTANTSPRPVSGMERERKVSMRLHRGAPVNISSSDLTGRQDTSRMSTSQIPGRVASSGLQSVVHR
Chain of Interleukin-1 receptor-associated kinase 1 (P51617 whole entry): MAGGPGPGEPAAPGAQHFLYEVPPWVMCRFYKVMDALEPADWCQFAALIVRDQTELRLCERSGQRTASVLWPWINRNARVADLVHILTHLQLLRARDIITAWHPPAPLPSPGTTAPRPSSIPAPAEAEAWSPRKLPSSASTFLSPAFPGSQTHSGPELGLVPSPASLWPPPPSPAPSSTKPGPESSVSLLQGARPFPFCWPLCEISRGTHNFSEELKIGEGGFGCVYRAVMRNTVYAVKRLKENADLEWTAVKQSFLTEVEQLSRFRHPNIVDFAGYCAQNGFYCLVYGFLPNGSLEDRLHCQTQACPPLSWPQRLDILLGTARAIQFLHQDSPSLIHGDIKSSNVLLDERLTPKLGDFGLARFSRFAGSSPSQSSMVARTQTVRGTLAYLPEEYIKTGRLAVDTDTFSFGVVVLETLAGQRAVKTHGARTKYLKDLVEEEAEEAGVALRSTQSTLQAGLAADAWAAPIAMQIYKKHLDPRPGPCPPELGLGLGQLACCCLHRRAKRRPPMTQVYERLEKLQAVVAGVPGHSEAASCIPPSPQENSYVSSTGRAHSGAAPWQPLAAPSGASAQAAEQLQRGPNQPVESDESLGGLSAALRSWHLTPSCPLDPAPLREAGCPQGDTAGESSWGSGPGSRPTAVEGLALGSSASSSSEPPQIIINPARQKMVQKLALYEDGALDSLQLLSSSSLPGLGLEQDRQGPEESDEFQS
Chain of Ribosomal protein S6 kinase alpha-1 (Q15418 whole entry): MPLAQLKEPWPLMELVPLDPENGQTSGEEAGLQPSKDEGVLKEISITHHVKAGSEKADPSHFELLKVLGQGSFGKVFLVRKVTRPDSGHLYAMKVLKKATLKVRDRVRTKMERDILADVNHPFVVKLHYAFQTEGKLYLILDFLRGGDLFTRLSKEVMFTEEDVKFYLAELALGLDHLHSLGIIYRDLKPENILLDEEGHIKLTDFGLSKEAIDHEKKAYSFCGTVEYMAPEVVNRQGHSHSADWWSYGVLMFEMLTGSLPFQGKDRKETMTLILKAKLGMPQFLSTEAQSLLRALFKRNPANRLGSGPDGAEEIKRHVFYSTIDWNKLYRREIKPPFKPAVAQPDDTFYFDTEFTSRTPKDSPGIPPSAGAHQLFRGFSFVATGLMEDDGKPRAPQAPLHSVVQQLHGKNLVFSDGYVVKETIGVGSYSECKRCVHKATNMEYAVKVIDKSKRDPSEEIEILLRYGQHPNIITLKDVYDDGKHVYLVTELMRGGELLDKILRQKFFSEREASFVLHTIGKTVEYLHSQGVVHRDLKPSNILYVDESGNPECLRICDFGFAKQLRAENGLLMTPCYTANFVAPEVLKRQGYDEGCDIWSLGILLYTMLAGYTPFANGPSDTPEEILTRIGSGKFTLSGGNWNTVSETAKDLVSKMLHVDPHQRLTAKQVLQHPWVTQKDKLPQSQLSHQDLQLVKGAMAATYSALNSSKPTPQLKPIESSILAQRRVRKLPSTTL
Chain of Rho-associated protein kinase 2 (O75116 whole entry): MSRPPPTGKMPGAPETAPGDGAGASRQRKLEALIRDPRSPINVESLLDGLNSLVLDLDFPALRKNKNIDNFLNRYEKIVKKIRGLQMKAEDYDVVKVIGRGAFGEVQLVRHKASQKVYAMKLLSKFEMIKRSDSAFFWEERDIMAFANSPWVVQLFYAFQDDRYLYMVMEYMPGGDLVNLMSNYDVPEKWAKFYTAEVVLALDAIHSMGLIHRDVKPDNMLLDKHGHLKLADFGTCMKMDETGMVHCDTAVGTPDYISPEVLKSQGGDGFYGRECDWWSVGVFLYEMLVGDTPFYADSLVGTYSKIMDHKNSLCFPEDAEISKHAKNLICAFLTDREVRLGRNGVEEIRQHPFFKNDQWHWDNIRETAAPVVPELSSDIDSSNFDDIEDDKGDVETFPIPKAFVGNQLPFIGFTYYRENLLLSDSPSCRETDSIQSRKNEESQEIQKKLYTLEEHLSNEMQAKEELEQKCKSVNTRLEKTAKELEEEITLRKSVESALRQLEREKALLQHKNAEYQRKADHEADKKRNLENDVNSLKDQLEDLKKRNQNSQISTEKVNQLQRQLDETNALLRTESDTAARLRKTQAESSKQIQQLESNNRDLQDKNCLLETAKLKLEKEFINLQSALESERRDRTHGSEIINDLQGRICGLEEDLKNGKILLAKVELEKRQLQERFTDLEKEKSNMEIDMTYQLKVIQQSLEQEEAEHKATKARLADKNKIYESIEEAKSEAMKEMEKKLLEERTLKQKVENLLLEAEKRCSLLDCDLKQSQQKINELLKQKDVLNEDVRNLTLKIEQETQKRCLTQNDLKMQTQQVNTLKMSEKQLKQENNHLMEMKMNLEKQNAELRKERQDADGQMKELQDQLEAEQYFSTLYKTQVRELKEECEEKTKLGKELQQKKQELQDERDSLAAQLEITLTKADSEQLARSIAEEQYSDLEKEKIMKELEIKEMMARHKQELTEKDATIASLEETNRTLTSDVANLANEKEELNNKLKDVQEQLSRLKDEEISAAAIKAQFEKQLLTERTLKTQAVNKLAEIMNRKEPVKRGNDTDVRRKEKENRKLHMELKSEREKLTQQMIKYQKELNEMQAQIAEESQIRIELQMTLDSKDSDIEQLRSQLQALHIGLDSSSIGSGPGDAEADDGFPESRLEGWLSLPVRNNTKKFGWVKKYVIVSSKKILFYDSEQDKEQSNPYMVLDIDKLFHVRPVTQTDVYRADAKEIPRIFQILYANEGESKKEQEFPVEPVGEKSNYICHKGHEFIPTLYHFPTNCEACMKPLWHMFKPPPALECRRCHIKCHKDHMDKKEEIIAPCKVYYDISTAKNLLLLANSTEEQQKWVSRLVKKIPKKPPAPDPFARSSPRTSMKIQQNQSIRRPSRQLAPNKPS

| SMILES | Kd [1] | Kd [2] | Kd [3] | Kd [4] | Kd [5] | Kd [6] | Kd [7] | Kd [8] | Kd [9] |
| --- | --- | --- | --- | --- | --- | --- | --- | --- | --- |
| CCn1c(=O)c(-c2cc[nH]n2)cc2c(C)nc(N)nc21 [VOXTALISIB] | > 30 µM (inactive) | > 30 µM (inactive) | > 30 µM (inactive) | > 30 µM (inactive) | > 30 µM (inactive) | > 30 µM (inactive) | > 30 µM (inactive) | > 30 µM (inactive) | > 30 µM (inactive) |
| Cc1cc2c(F)c(Oc3ncnn4cc(OC[C@@H](C)OC(=O)[C@H](C)N)c(C)c34)ccc2[nH]1 [BRIVANIB ALANINATE] | > 30 µM (inactive) | > 30 µM (inactive) | > 30 µM (inactive) | > 30 µM (inactive) | > 30 µM (inactive) | > 30 µM (inactive) | > 30 µM (inactive) | > 30 µM (inactive) | > 30 µM (inactive) |
| COc1cc(OC)c(/C=C/S(=O)(=O)Cc2ccc(OC)c(NCC(=O)O)c2)c(OC)c1 [RIGOSERTIB] | > 30 µM (inactive) | > 30 µM (inactive) | > 30 µM (inactive) | > 30 µM (inactive) | > 30 µM (inactive) | > 30 µM (inactive) | > 30 µM (inactive) | > 30 µM (inactive) | > 30 µM (inactive) |
| C=CC(=O)N1CCC(Oc2cc3c(Nc4ccc(Cl)c(Cl)c4F)ncnc3cc2OC)CC1 [POZIOTINIB] | > 30 µM (inactive) | > 30 µM (inactive) | > 30 µM (inactive) | > 30 µM (inactive) | > 30 µM (inactive) | > 30 µM (inactive) | > 30 µM (inactive) | > 30 µM (inactive) | > 30 µM (inactive) |
| Cc1ccc(-n2nc(C(C)(C)C)cc2NC(=O)NCc2cc(F)ccc2Oc2ccc3c(cnn3CCO)c2)cc1 [PEXMETINIB] | > 30 µM (inactive) | > 30 µM (inactive) | 4.37 µM (active) | > 30 µM (inactive) | > 30 µM (inactive) | > 30 µM (inactive) | > 30 µM (inactive) | > 30 µM (inactive) | > 30 µM (inactive) |
| Cn1cc(-c2ccc(F)c(C(F)(F)F)c2)nc1C1CCN(c2ncnc3[nH]ncc23)CC1 [LY-2584702] | > 30 µM (inactive) | > 30 µM (inactive) | > 30 µM (inactive) | > 30 µM (inactive) | > 30 µM (inactive) | > 30 µM (inactive) | > 30 µM (inactive) | > 30 µM (inactive) | > 30 µM (inactive) |
| O=C1NC(=O)/C(=C/c2ccc3nccc(-c4ccncc4)c3c2)S1 [GSK-1059615] | 21.5 µM (active) | 0.314 µM (active) | > 30 µM (inactive) | > 30 µM (inactive) | > 30 µM (inactive) | > 30 µM (inactive) | > 30 µM (inactive) | > 30 µM (inactive) | > 30 µM (inactive) |
| CN1N=C(N)c2cn([C@@H]3O[C@H](COP(=O)(O)O)[C@@H](O)[C@H]3O)c3ncnc1c23 [TRICIRIBINE PHOSPHATE] | > 30 µM (inactive) | > 30 µM (inactive) | > 30 µM (inactive) | > 30 µM (inactive) | > 30 µM (inactive) | > 30 µM (inactive) | > 30 µM (inactive) | > 30 µM (inactive) | > 30 µM (inactive) |
| CN1CCC(CNc2ccc3ncc(-c4cccc(OC(F)(F)F)c4)n3n2)CC1 [SGI-1776] | > 30 µM (inactive) | > 30 µM (inactive) | > 30 µM (inactive) | > 30 µM (inactive) | 35.4 µM (active) | > 30 µM (inactive) | > 30 µM (inactive) | > 30 µM (inactive) | > 30 µM (inactive) |
| CC(C)Nc1cc(-c2c[nH]c(C(=O)N[C@H](CO)c3cccc(Cl)c3)c2)c(Cl)cn1 [ULIXERTINIB] | > 30 µM (inactive) | > 30 µM (inactive) | > 30 µM (inactive) | > 30 µM (inactive) | > 30 µM (inactive) | > 30 µM (inactive) | > 30 µM (inactive) | > 30 µM (inactive) | > 30 µM (inactive) |
| CN1CC[C@@H](c2c(O)cc(O)c3c(=O)cc(-c4ccccc4Cl)oc23)[C@@H]1CO | > 30 µM (inactive) | > 30 µM (inactive) | > 30 µM (inactive) | > 30 µM (inactive) | > 30 µM (inactive) | > 30 µM (inactive) | > 30 µM (inactive) | > 30 µM (inactive) | > 30 µM (inactive) |
| Cc1ccc(S(=O)(=O)Nc2nc3ccccc3nc2Nc2ccc3nsnc3c2)cc1 | > 30 µM (inactive) | > 30 µM (inactive) | > 30 µM (inactive) | > 30 µM (inactive) | > 30 µM (inactive) | > 30 µM (inactive) | > 30 µM (inactive) | > 30 µM (inactive) | > 30 µM (inactive) |
| COC(=O)N[C@@H](C)CNc1nccc(-c2cn(C(C)C)nc2-c2cc(Cl)cc(NS(C)(=O)=O)c2F)n1 [ENCORAFENIB] | > 30 µM (inactive) | > 30 µM (inactive) | 0.247 µM (active) | > 30 µM (inactive) | > 30 µM (inactive) | > 30 µM (inactive) | > 30 µM (inactive) | > 30 µM (inactive) | > 30 µM (inactive) |
| COCCNCc1ccc(-c2cc3nccc(Oc4ccc(NC(=S)NC(=O)Cc5ccc(F)cc5)cc4F)c3s2)nc1 [GLESATINIB] | > 30 µM (inactive) | > 30 µM (inactive) | > 30 µM (inactive) | > 30 µM (inactive) | > 30 µM (inactive) | > 30 µM (inactive) | > 30 µM (inactive) | > 30 µM (inactive) | > 30 µM (inactive) |
